# According to PubChem BioAssay (NCI):
#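 Results reflect a 48-hour exposure of cells in 96-well plates to compound at five concentrations. Abbreviation: GI50, concentration required for 50% inhibition of growth. TGI is the concentration that stops growth completely.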
# Key:
# Assay in all cases: NCI-60 cell line screen, 48 h
# HCT-116 colon = tested on: HCT-116 colon
# SF-539 CNS = tested on: SF-539 CNS
# OVCAR-3 ovarian = tested on: OVCAR-3 ovarian
# IGROV1 ovarian = tested on: IGROV1 ovarian
# CAKI-1 renal = tested on: CAKI-1 renal
# M14 melanoma = tested on: M14 melanoma
# SK-MEL-5 melanoma = tested on: SK-MEL-5 melanoma
# NCI-H23 lung = tested on: NCI-H23 lung
# HCT-15 colon = tested on: HCT-15 colon
# HOP-62 NSCLC = tested on: HOP-62 NSCLC
SMILES,GI50 (HCT-116 colon),TGI (HCT-116 colon),GI50 (SF-539 CNS),TGI (SF-539 CNS),GI50 (OVCAR-3 ovarian),TGI (OVCAR-3 ovarian),GI50 (IGROV1 ovarian),TGI (IGROV1 ovarian),GI50 (CAKI-1 renal),TGI (CAKI-1 renal),GI50 (M14 melanoma),TGI (M14 melanoma),GI50 (SK-MEL-5 melanoma),TGI (SK-MEL-5 melanoma),GI50 (NCI-H23 lung),TGI (NCI-H23 lung),GI50 (HCT-15 colon),TGI (HCT-15 colon),GI50 (HOP-62 NSCLC),TGI (HOP-62 NSCLC)
Clc1ccc(C2=Nn3c(nnc3-c3cc(Cl)cc(Cl)c3Cl)SC2)cc1,22.1 µM,> 100 µM,20.1 µM,48.3 µM,21.2 µM,50.8 µM,6.8 µM,24.7 µM,14.6 µM,31.3 µM,29 µM,> 100 µM,23.5 µM,> 100 µM,22.1 µM,78.8 µM,22.3 µM,> 100 µM,14.5 µM,32.5 µM
C[C@@H](CN1CC(=O)NC(=O)C1)N1CC(=O)NC(=O)C1,,750 µM,,1060 µM,,767 µM,,1440 µM,80.7 µM,772 µM,,1160 µM,,543 µM,,791 µM,,823 µM,,328 µM
Cc1cc(O)c(C2=NN(c3ccc(S(N)(=O)=O)cc3)C(c3ccc(N(C)C)cc3)C2)c(C)c1Cl (stereo unspecified),7.6 µM,21.1 µM,15.7 µM,29.3 µM,17.8 µM,33.3 µM,18.3 µM,59 µM,23.3 µM,> 100 µM,14 µM,29.4 µM,14.5 µM,27.8 µM,17.7 µM,43.7 µM,14.2 µM,32 µM,18.6 µM,34.8 µM
O=C(Nc1cccc(Cc2cccc(NC(=O)c3ccccc3)c2)c1)c1ccccc1,,> 100 µM,,39.6 µM,,> 100 µM,,> 100 µM,,47.9 µM,,> 100 µM,,> 100 µM,,> 100 µM,,> 100 µM,,60.9 µM
CC(C)CC(=O)Nc1n[nH]c2c1CN(C(=O)C1CCN(C)CC1)C2(C)C,0.362 µM,> 10 µM,1.78 µM,8.99 µM,0.435 µM,5.25 µM,0.579 µM,> 10 µM,4.79 µM,> 10 µM,2.24 µM,> 10 µM,0.743 µM,5.7 µM,0.352 µM,5.4 µM,> 10 µM,> 10 µM,1.2 µM,> 10 µM
CN(CC#N)C1CCCC[C@H]1O (stereo partly specified),,> 100 µM,,> 100 µM,,> 100 µM,,> 100 µM,,> 100 µM,,> 100 µM,,> 100 µM,,> 100 µM,,> 100 µM,,> 100 µM
O=C(Nc1ccccc1O)c1ccc(CNc2ccnc(C(F)(F)F)c2)cc1,3.96 µM,34.9 µM,1.89 µM,23.1 µM,4.88 µM,21.9 µM,7.64 µM,32.9 µM,1.74 µM,14.3 µM,3.86 µM,38 µM,2.2 µM,10.2 µM,4.72 µM,81.4 µM,11.8 µM,> 100 µM,5.54 µM,47.6 µM
O=C(CC1(O)C(=O)Nc2ccccc21)c1ccco1 (stereo unspecified),,> 100 µM,,> 100 µM,,> 100 µM,,> 100 µM,,> 100 µM,,> 100 µM,,> 100 µM,,> 100 µM,,> 100 µM,,> 100 µM
